Literature values in US20230371513A1, “PHOTOSTABLE COMPOSITION AND METHOD OF REDUCING OR CONTROLLING WEED POPULATION APPLYING SAID COMPOSITION” (UPL DO BRASIL INDUSTRIA E COMERCIO DE INSUMOS AGROPECUARIOS …, priority 2020, published 2023).

Details: buffer

Structure (SMILES): Cc1nn(-c2cc(NS(C)(=O)=O)c(Cl)cc2Cl)c(=O)n1C(F)F [sulfentrazone]
- half-life, direct photolysis: 1 to 12 h
